Values joined by “and” are separate entries in the source; they are usually repeats but may differ in a detail not shown here. Identical values can stand only once. A value given as a limit tells only on which side of the number the result lay.

Consider one molecule from patent publication US12559471B2, “1,5-dihydro-2,4-benzodiazepine-3-one derivative and application thereof” (JIANGSU NHWA PHARMACEUTICAL CO., LTD, priority 2020, dated 2026).

In series [1] the test system is DOI-induced PPI impairment in rats. As to the kind of experiment: DOI-induced PPI impairment test in rats (intervention test). It is filed as in vivo. To be noted: DOI 0.5 mg/kg. On the procedure: 3. DOI ((f)-1-(2,5-dimethoxy-4-iodophenyl)-2-aminopropane hydrochloride or (f)-2,5-dimethoxy-4-iodoamphetamine hydrochloride) induced PPI impairment effect test in rats
30 min after the intragastric administration of a drug (or a vehicle) and 30 min after the subcutaneous injection of DOI at 0.5 mg/kg at the neck, namely 60 min after the intragastric administration, the rats were placed into a startle reflex test box for testing.
(§1) The test was performed according to literature and preliminary experiments, and the specific process was as follows: first an adaptation period of 5 min was given (62 dB background sound), and 5 separate startle reflex stimuli were given after the adaptation period (blockl, results not included in the analysis to reduce the initial response of the animals to a plateau level), followed by 4 different types of tests (block2) presented in a pseudo-random manner, namely: 1) startle reflex stimulus alone (pulse-alone, 120 dB, lasting 20 ms); 2) prepulse stimulus alone 13 dB above the background sound (prepulse-alone, 75 dB, lasting 20 ms); 3) prepulse stimulus in combination with startle reflex stimulus, each lasting 20 ms, with an interval of 100 ms; and 4) no stimulus in which only the background sound was given (no stimulus). Each trial was performed 5 times, with an average interval of 20 s (10-30 s) between trials.
The response amplitude of the startle reflex stimulus alone or the prepulse stimulus in combination with startle reflex stimulus was expressed as the AVG (instrument-specific unit) value, which indirectly reflects the size of the flinching response of the rat body. Evaluation index: PPI %=(1−response amplitude of prepulse stimulus in combination with startle reflex stimulus/response amplitude of startle reflex stimulus alone)×100. The higher the value is, the greater the degree of the inhibition is.

In series [2] the test system is DOI-induced head shaking behavior of mice. As to the kind of experiment: DOI-induced head shaking (head thrust) test in mice. It is filed as in vivo. The following applies: Mus musculus, intragastric, DOI 1 mg/kg i.p., 0-20 min, read-out: ED50 for inhibiting the DOI-induced head shaking behavior. The protocol:
1. Head Thrust Test in Mice
Mice were stratified according to body weight and then randomly divided into a model control group, a blank control group and drug administration groups. 1 h after the intragastric administration of a vehicle or a drug, the animals were placed in a beaker (with the diameter of 13 cm and the height of 19 cm) paved with fresh padding, and were injected with a modeling drug DOI ((±)-1-(2,5-dimethoxy-4-iodophenyl)-2-aminopropane hydrochloride or (±)-2,5-dimethoxy-4-iodoamphetamine hydrochloride) intraperitoneally at a dose of 1 mg/kg. The head shaking times of the mice during the 0-20 min after the intraperitoneal injection of DOI were recorded. The head shaking behavior is defined as a rapid rotational twitching or wet dog-like shaking of the mouse head, which is distinguished from normal grooming or exploring behavior.

In series [3] the test system is PPI in normal rats. As to the kind of experiment: PPI in normal rats (dosing test, normal saline instead of DOI). It is filed as in vivo. The following applies: normal saline. On the procedure: as §1
The response amplitude of the startle reflex stimulus alone or the prepulse stimulus in combination with startle reflex stimulus was expressed as the AVG (instrument-specific unit) value, which indirectly reflects the size of the flinching response of the rat body. Evaluation index: PPI %=(1−response amplitude of prepulse stimulus in combination with startle reflex stimulus/response amplitude of startle reflex stimulus alone)×100. The higher the value is, the greater the degree of the inhibition is. Dosing Test:
The DOI at 0.5 mg/kg administered to animals in the above groups was changed to normal saline (NS), and other operations including administration and testing were the same as those in the intervention test.

The target of series [4] is calcium channel receptor. To be noted: background statement, no significant affinity; cited from earlier work.
The target in series [5] is adrenergic receptor. The following applies: background statement, no significant affinity; cited from earlier work.
The test system of series [6] is MPTP+MK-801-induced Parkinson's disease mouse model. As to the kind of experiment: MPTP+MK-801-induced Parkinson's disease mouse model (anti-PDP efficacy model). The series is classed as in vivo. The following applies: ip, mice, intraperitoneal, read-out: PDP efficacy (high activity) ED50. The protocol: 1.1 Effect on MPTP+MK-801-induced Parkinson's disease mouse model (anti-PDP efficacy model)
Animals were injected with different doses of MPTP(1-methyl-4-phenyl-1,2,3,6-tetrahydropyridine) intraperitoneally every morning for 5 consecutive days. […] Then, after an interval of 0.25 h, the mice were placed into an autonomous activity test box (a black polyethylene box with the specification of 29 cm×29 cm×30 cm) for video recording for 20 min. Video analysis was performed after the video recording to evaluate the activity of the mice.

For series [7], the target named is 5-HT2B receptor (Homo sapiens (Human), UniProt P41595). The following applies: background statement, no significant affinity; cited from earlier work.
Chain of 5-HT2B receptor (P41595 whole entry): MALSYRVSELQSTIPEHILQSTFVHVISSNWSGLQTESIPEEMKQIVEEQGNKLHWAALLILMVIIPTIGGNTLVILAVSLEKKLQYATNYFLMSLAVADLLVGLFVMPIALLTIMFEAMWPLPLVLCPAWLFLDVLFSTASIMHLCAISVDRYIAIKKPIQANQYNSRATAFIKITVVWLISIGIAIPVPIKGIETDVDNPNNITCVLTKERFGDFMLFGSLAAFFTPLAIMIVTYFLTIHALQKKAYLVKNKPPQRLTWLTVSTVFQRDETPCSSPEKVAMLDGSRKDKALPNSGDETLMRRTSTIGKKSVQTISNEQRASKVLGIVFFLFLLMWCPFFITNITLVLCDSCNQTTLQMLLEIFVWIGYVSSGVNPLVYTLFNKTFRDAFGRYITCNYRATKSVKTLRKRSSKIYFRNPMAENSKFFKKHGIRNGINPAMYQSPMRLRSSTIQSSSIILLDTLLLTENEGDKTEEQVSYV
The target of series [8] is muscarinic receptor. The following applies: background statement, no significant affinity; cited from earlier work.
Series [9] relates to MK-801-induced high activity behavior of mice. As to the kind of experiment: Dizocilpine (MK-801)-induced high activity test in mice. The series is classed as in vivo. To be noted: Mus musculus, 1 h, intragastric, MK-801 0.3 mg/kg i.p., 60 min, read-out: ED50 for inhibiting the MK-801-induced high activity behavior. The protocol:
2. Dizocilpine (MK-801)-Induced High Activity Test in Mice 2.1 Test Method
Mice were stratified according to body weight and then randomly divided into a model control group, a blank control group and drug administration groups. After the administration of a test substance (or a control substance), the mice were placed into an autonomous activity test box (a black polyethylene box with the specification of 29 cm×29 cm×30 cm) for adaptation, and injected with MK-801 at 0.3 mg/kg intraperitoneally 1 h after the intragastric administration. The mice were then placed into the autonomous activity test box for video recording for 60 min. Video analysis was performed after the video recording to evaluate the activity of the mice.

The subject of series [10] is MPTP+APO-induced climbing behavior in male mice. Nature of the series: MPTP+APO-induced climbing behavior in male mice (DA motor deterioration model). The series is classed as in vivo. To be noted: male mice, intraperitoneal. The protocol:
(§2) 1.2 Effect on MPTP+APO-induced climbing behavior in male mice (DA motor deterioration model) Animals were injected with different doses of MPTP intraperitoneally every morning for 5 consecutive days. […] After the subcutaneous injection, animals were immediately placed into a climbing cage (self-made, a cylindrical cage with the diameter of 13 cm and the height of 15 cm, made of a stainless steel wire mesh with the diameter of about 0.1 cm, the bottom of which is a semitransparent polyethylene plate, and the cage cover of which is a stainless steel cage cover), and the behaviors of animals at minutes 10-11, 20-21 and 30-31 after the APO injection was observed and scored.
(§3) Scoring criteria: four feet on the floor scored 0; two forepaws on the cage scored 1; and four feet on the cage scored 2.

Assay in series [11]: as above
The following applies: mouse, in vivo, ip; male mice, intraperitoneal; read-out: DA side effects (climbing motor deterioration) ED50. It is filed as in vivo. On the procedure: as §2, §3

The nature of series [12]: Investigation of sedation side effects (autonomic activity, movement distance). The series is classed as in vivo, mice. To be noted: mouse, in vivo, ip; C57BL/6j mice, intraperitoneal, 45 min after administration. On the procedure:
1.3 Investigation of Sedation Side Effects (Anti-Sedation Model)
According to different doses of each group, solutions at different concentrations were separately formulated for intraperitoneal injection, with the final administration volume of 10 mL/kg.
The movement at 0-20 min was recorded on video, and the movement distance in 20 min was analyzed by Top Scan 3.00 software. The inhibition rate of each group relative to the blank group after the administration were calculated, and the sedation effects of the compounds were comprehensively evaluated in combination with a statistical conclusion.

Consider `CC(C)COc1ccc(CNC(=O)N(Cc2ccc(F)cc2)C2CCN(C)CC2)cc1` [Pimavanserin, reference compound], for which the “reversal of DOI-induced PPI impairment” value in series [1] (3 mg/kg, P<0.05) is “significantly reverse”. Besides, the “PPI %, MEAN” value in series [1] (1 mg/kg intragastric) turned out to be 28.93%; in [1] (3 mg/kg intragastric) it was 42.65%; in series [1] (10 mg/kg intragastric) it was 47.32%; in series [3] (1 mg/kg intragastric), 63.11%; in [3] (3 mg/kg intragastric), 60.54%; in series [3] (10 mg/kg intragastric), 57.00%. The “PPI %, individual animal” value in series [1] (1 mg/kg intragastric) is 30.19% and 7.34% and 12.78% and −9.80% and 36.56% and 57.19% and 55.33% and 41.86%; in series [1] (3 mg/kg intragastric), 25.79% and 45.06% and 35.48% and 4.10% and 30.23% and 62.54% and 62.41% and 75.59%; in series [1] (10 mg/kg intragastric) it was 69.36% and 54.29% and 71.90% and 24.73% and 32.57% and 37.52% and 33.19% and 55.00%; in series [3] (1 mg/kg intragastric), 14.80% and 45.96% and 67.95% and 61.11% and 92.15% and 83.93% and 70.62% and 68.32%; in [3] (3 mg/kg intragastric) it was 76.95% and 37.54% and 42.51% and 64.49% and 42.29% and 71.78% and 84.89% and 63.88%; in series [3] (10 mg/kg intragastric), 83.19% and 80.13% and 44.91% and 82.49% and 52.16% and −32.12% and 72.74% and 72.49%. The ED50 in series [2] is 0.39 mg/kg; in series [6] it was 0.37 mg/kg; in [9], 3.29 mg/kg; in [11], over 30 mg/kg. The Ki in series [4], in series [5], in [7] and in series [8] was over 300 nM in each case. Moreover, the “DA side effects (climbing motor deterioration) ED50” value in [10] is recorded as over 30 mg/kg. The ED50 at 45 min in series [12] turned out to be 6.79 mg/kg.
